Laboratory results published in patent US7704995B2 (Exelixis, Inc., priority 2003, dated 2010).
Read-outs that look alike come from different tables or passages of the source.

Target: T1, Chk1 (Homo sapiens, UniProt O14757)
T1 construct: purchased Upstate Biotechnology
T1 sequence (O14757 1-476): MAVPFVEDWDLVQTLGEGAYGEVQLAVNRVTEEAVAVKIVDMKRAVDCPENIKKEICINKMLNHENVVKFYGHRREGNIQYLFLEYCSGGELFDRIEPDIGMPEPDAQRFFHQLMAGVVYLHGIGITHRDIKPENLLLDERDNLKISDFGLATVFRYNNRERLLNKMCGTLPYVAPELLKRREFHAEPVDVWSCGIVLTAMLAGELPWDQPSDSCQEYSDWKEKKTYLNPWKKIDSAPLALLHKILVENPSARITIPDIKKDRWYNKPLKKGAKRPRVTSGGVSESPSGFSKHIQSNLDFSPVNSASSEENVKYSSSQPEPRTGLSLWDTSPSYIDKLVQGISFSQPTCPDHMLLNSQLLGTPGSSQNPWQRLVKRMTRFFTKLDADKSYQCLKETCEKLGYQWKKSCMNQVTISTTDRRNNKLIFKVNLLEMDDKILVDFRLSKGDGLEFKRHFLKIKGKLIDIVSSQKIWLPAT
Assay: Chk1 kinase assay: incorporation of γ-33P ATP into immobilized myelin basic protein
Format: biochemical
Conditions: read-out: Chk1 IC50
Method in brief: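 Immobilized-MBP radiometric kinase assay, room temperature for 1 h; ATP 10 μM (Chk1, 10 nM enzyme) or 30 μM (Chk2, 20 nM enzyme) with 33P tracer. Values are IC50s, with Ki derived from them.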

[1] = Table 11, Chk1 only, class symbols A-D

Structure (SMILES) | IC50 [nM] | IC50 [1] [nM] | IC50 (Table 11, Chk1 only) [nM]
CNC(=O)c1nc(-c2cccc(C(=O)NCc3ccc4c(c3)OCO4)c2)cnc1N [Example 223, 3-amino-6-(3-{[(1,3-benzodioxol-5-ylmethyl)amino]carbonyl}phenyl)-N-methylpyrazine-2-carboxamide] | 50 to 1000 | – | –
CNC(=O)c1nc(-c2cccc(CNCc3ccc(-c4cccs4)cc3F)c2)cnc1N [Example 450, 3-amino-6-{3-[({[2-fluoro-4-(2-thienyl)phenyl]methyl}amino)methyl]phenyl}-N-methylpyrazine-2-carboxamide] | – | – | < 50
N=C(NN1CCOCC1)c1nc(-c2cccc(C(=O)NCc3ccccc3)c2)cnc1N [Example 620, 3-{5-amino-6-[imino(morpholin-4-ylamino)methyl]pyrazin-2-yl}-N-(phenylmethyl)benzamide] | – | – | 1000 to 10000
CNC(=O)c1nc(-c2cccc(CNC3CCc4c(Br)cccc43)c2)cnc1N (stereo not drawn) [Example 492, 3-amino-6-(3-{[(4-bromo-2,3-dihydro-1H-inden-1-yl)amino]methyl}phenyl)-N-methylpyrazine-2-carboxamide] | – | – | < 50
CNC(=O)c1nc(-c2cccc(C(=O)NCc3cc(C)ccc3C)c2)cnc1N [Example 261, 3-amino-6-[3-({[(2,5-dimethylphenyl)methyl]amino}carbonyl)phenyl]-N-methylpyrazine-2-carboxamide] | 50 to 1000 | – | –
CNC(=O)c1nc(-c2cccc(C(=O)NCc3ccccc3-c3ccc(F)cc3)c2)cnc1N [Example 280, 3-amino-6-[3-({[(4′-fluorobiphenyl-2-yl)methyl]amino}carbonyl)phenyl]-N-methylpyrazine-2-carboxamide] | 50 to 1000 | – | –
CNC(=O)c1nc(-c2cccc(CNC3Cc4ccccc4C3)c2)cnc1N [Example 415, 3-amino-6-{3-[(2,3-dihydro-1H-inden-2-ylamino)methyl]phenyl}-N-methylpyrazine-2-carboxamide] | < 50 | – | –
N=C(NNc1nccc(C(F)(F)F)n1)c1nc(-c2cccc(C(=O)NCc3ccccc3)c2)cnc1N [Example 668, 3-[5-amino-6-(imino{2-[4-(trifluoromethyl)pyrimidin-2-yl]hydrazino}methyl)pyrazin-2-yl]-N-(phenylmethyl)benzamide] | – | – | 1000 to 10000
CNC(=O)c1nc(-c2cccc(-c3nnn[nH]3)c2)cnc1N [Example 83, 3-amino-N-methyl-6-[3-(1H-tetrazol-5-yl)phenyl]pyrazine-2-carboxamide] | 1000 to 10000 | – | –
CNC(=O)c1nc(-c2cccc(NC(=O)NCc3ccccc3)c2)cnc1N [Example 168, 3-amino-N-methyl-6-[3-({[(phenylmethyl)amino]carbonyl}amino)phenyl]pyrazine-2-carboxamide] | 50 to 1000 | – | –
CNC(=O)c1nc(-c2cccc(C(=O)Nc3ccccc3)c2)cnc1N [Example 142, 3-amino-N-methyl-6-{3-[(phenylamino)carbonyl]phenyl}pyrazine-2-carboxamide] | 1000 to 10000 | – | –
CNC(=O)c1nc(-c2cccc(CNCc3cccc(C(F)(F)F)c3)c2)cnc1N [Example 426, 3-amino-N-methyl-6-{3-[({[3-(trifluoromethyl)phenyl]methyl}amino)methyl]phenyl}pyrazine-2-carboxamide] | 50 to 1000 | – | –
CNC(=O)c1nc(-c2cccc(CNC(=O)c3ccc(I)cc3)c2)cnc1N [Example 350, 3-amino-6-[3-({[(4-iodophenyl)carbonyl]amino}methyl)phenyl]-N-methylpyrazine-2-carboxamide] | < 50 | – | –
CC(C)(C)OC(=O)N1CCN(C(=O)c2nc(-c3cccc(C(=O)NCc4ccccc4)c3)cnc2N)CC1 [Example 592, 1,1-dimethylethyl 4-{[3-amino-6-(3-{[(phenylmethyl)amino]carbonyl}phenyl)pyrazin-2-yl]carbonyl}piperazine-1-carboxylate] | – | – | ≥ 10000
CNC(=O)c1nc(-c2cccc(C(=O)N(C)C)c2)cnc1N [Example 86, 3-amino-6-{3-[(dimethylamino)carbonyl]phenyl}-N-methylpyrazine-2-carboxamide] | 1000 to 10000 | – | –
CNC(=O)c1nc(-c2ccc3ccccc3c2)cnc1N [Example 498, 3-amino-N-methyl-6-naphthalen-2-ylpyrazine-2-carboxamide] | – | – | 50 to 1000
CCN1CCN(CCOc2cccc(-c3cnc(N)c(C(=O)NC)n3)c2)CC1 [Example 190, 3-amino-6-(3-{[2-(4-ethylpiperazin-1-yl)ethyl]oxy}phenyl)-N-methylpyrazine-2-carboxamide] | 50 to 1000 | – | –
CNC(=O)c1nc(-c2cccc(CNC3CCc4cc(CCCO)ccc43)c2)cnc1N (stereo not drawn) [Example 527] | – | – | < 50
CNC(=O)c1nc(-c2cccc(C(=O)NCc3cccc(I)c3)c2)cnc1N [Example 340, 3-amino-6-[3-({[(3-iodophenyl)methyl]amino}carbonyl)phenyl]-N-methylpyrazine-2-carboxamide] | < 50 | – | –
Nc1ncc(-c2cccc(C(=O)NCc3ccccc3)c2)nc1C(=O)NCC(=O)O [Example 577, N-{[3-amino-6-(3-{[(phenylmethyl)amino]carbonyl}phenyl)pyrazin-2-yl]carbonyl}glycine] | – | – | ≥ 10000
CNC(=O)c1nc(-c2cccc(CN[C@H]3C[C@H]3c3ccccc3)c2)cnc1N [Example 440, 3-amino-N-methyl-6-[3-({[(1S,2S)-2-phenylcyclopropyl]amino}methyl)phenyl]pyrazine-2-carboxamide] | – | – | 50 to 1000
CNC(=O)c1nc(-c2cccc(CNCc3ccccc3)c2)cnc1N [Example 315, 3-amino-N-methyl-6-(3-{[(phenylmethyl)amino]methyl}phenyl)pyrazine-2-carboxamide] | 50 to 1000 | – | –

Other lines, results leading:

IC50 [nM] | IC50 [1] [nM] | IC50 (Table 11, Chk1 only) [nM] | Structure (SMILES)
– | < 50 | – | Nc1ncc(-c2cccc(C(=O)NCc3cccc(Cl)c3F)c2)nc1C(=O)N[C@H]1CCCNC1 [Example 997, 3-amino-6-[3-({[(3-chloro-2-fluorophenyl)methyl]amino}carbonyl)phenyl]-N-[(3S)-piperidin-3-yl]pyrazine-2-carboxamide]
– | < 50 | – | Nc1ncc(-c2cccc(C(=O)NCc3ccc(I)cc3)c2)nc1C(=O)N[C@H]1CCCNC1 [Example 880, 3-amino-6-[3-({[(4-iodophenyl)methyl]amino}carbonyl)phenyl]-N-[(3S)-piperidin-3-yl]pyrazine-2-carboxamide]
– | < 50 | – | Nc1ncc(-c2cccc(OCCN3CCN(C(=O)OCc4ccccc4)CC3)c2)nc1C(=O)N[C@H]1CCCNC1 [Example 965, phenylmethyl 4-(2-{[3-(5-amino-6-{[(3S)-piperidin-3-ylamino]carbonyl}pyrazin-2-yl)phenyl]oxy}ethyl)piperazine-1-carboxylate]
– | – | < 50 | Nc1ncc(-c2cccc(C(=O)N[C@H]3CCc4ccccc43)c2)nc1C(=O)NC[C@@H]1CCNC1 [Example 753, 3-amino-6-(3-{[(1S)-2,3-dihydro-1H-inden-1-ylamino]carbonyl}phenyl)-N-[(3R)-pyrrolidin-3-ylmethyl]pyrazine-2-carboxamide]
– | < 50 | – | Nc1ncc(-c2cccc(C(=O)N[C@H]3CCc4ccccc43)c2)nc1C(=O)N[C@H]1CCCCNC1 [Example 973, 3-amino-N-[(3S)-azepan-3-yl]-6-(3{[(1S)-2,3-dihydro-1H-inden-1-ylamino]carbonyl}phenyl)pyrazine-2-carboxamide]
– | ≥ 10000 | – | Nc1ncc(-c2cccc(CN[C@H]3CCc4ccccc43)c2)nc1-c1nc(C2CCCNC2)cs1 (stereo partly drawn) [Example 824, 5-(3-{[(1S)-2,3-dihydro-1H-inden-1-ylamino]methyl}phenyl)-3-(4-piperidin-3-yl-1,3-thiazol-2-yl)pyrazin-2-amine]
– | < 50 | – | Nc1ncc(-c2cccc(CN[C@H]3CCc4ccccc43)c2)nc1C(=O)NC1CCCCNC1 (stereo partly drawn) [Example 947, 3-amino-N-azepan-3-yl-6-(3-{[(1S)-2,3-dihydro-1H-inden-1-ylamino]methyl}phenyl)pyrazine-2-carboxamide]
– | 1000 to 10000 | – | CC(C)(C)OC(=O)N1CC[C@H](NC(=O)c2nc(-c3cccc(C(=O)NCc4ccc(Cl)c(Cl)c4)c3)cnc2N)C1 [Example 823, 1,1-dimethylethyl (3S)-3-[({3-amino-6-[3-({[(3,4-dichlorophenyl)methyl]amino}carbonyl)phenyl]pyrazin-2-yl}carbonyl)amino]pyrrolidine-1-carboxylate]
– | < 50 | – | Nc1ncc(-c2cccc(C(=O)N[C@@H]3CCNC3)c2)nc1C(=O)N[C@H]1CCCNC1 [Example 876, 3-amino-N-[(3S)-piperidin-3-yl]-6-(3-{[(3R)-pyrrolidin-3-ylamino]carbonyl}phenyl)pyrazine-2-carboxamide]
– | < 50 | – | Cc1c(Cl)cccc1CNC(=O)c1cccc(-c2cnc(N)c(C(=O)N[C@H]3CCCNC3)n2)c1 [Example 1025, 3-amino-6-[3-({[(3-chloro-2-methylphenyl)methyl]amino}carbonyl)phenyl]-N-[(3S)-piperidin-3-yl]pyrazine-2-carboxamide]
– | < 50 | – | Nc1ncc(-c2cccc(C(=O)NCc3ccc(Cl)c(C(F)(F)F)c3)c2)nc1C(=O)N[C@H]1CCCNC1 [Example 1005, 3-amino-6-{3-[({[4-chloro-3-(trifluoromethyl)phenyl]methyl}amino)carbonyl]phenyl}-N-[(3S)-piperidin-3-yl]pyrazine-2-carboxamide]
